From PubChem BioAssay AID248 (DTP/NCI, 2004)
Values joined by “and” are separate entries in the source; they are usually repeats but may differ in a detail not shown here. Equal entries are not always repeated. Toxic doses and inconclusive results are not listed.

System: L1210 leukemia ip in BDF1 mice, survival T/C
Experiment: NCI In Vivo Anticancer Drug Screen. Data for tumor model L1210 Leukemia (intraperitoneal) in B6D2F1 (BDF1) mice
Conditions: endpoint: mean survival time, higher = longer survival
In short: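 Transplanted-tumor mice were given test agent; controls received vehicle only. Survival readings from the two groups were divided (treated over control).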

[1] = dose: 100.0 mg/kg/injection, schedule: Q01DX009 (ip), vehicle: Klucel (hydroxypropylcellulose) (HPC)
[2] = dose: 100.0 mg/kg/injection, schedule: Q04DX002 (ip), vehicle: Klucel (hydroxypropylcellulose) (HPC)
[3] = dose: 200.0 mg/kg/injection, schedule: Q01DX009 (ip), vehicle: Klucel (hydroxypropylcellulose) (HPC)
[4] = dose: 200.0 mg/kg/injection, schedule: Q04DX002 (ip), vehicle: Klucel (hydroxypropylcellulose) (HPC)
[5] = dose: 400.0 mg/kg/injection, schedule: Q01DX009 (ip), vehicle: Klucel (hydroxypropylcellulose) (HPC)
[6] = dose: 400.0 mg/kg/injection, schedule: Q04DX002 (ip), vehicle: Klucel (hydroxypropylcellulose) (HPC)
[7] = dose: 50.0 mg/kg/injection, schedule: Q01DX001 (ip), vehicle: saline
[8] = dose: 100.0 mg/kg/injection, schedule: Q01DX001 (ip), vehicle: saline
[9] = dose: 200.0 mg/kg/injection, schedule: Q01DX001 (ip), vehicle: saline
[10] = dose: 400.0 mg/kg/injection, schedule: Q01DX001 (ip), vehicle: saline
[11] = dose: 100.0 mg/kg/injection, schedule: Q04DX003 (ip), vehicle: Klucel (hydroxypropylcellulose) (HPC)
[12] = dose: 200.0 mg/kg/injection, schedule: Q04DX003 (ip), vehicle: Klucel (hydroxypropylcellulose) (HPC)
[13] = dose: 400.0 mg/kg/injection, schedule: Q04DX003 (ip), vehicle: Klucel (hydroxypropylcellulose) (HPC)
[14] = dose: 100.0 mg/kg/injection, schedule: Q01DX009 (ip), vehicle: saline with Tween-80
[15] = dose: 100.0 mg/kg/injection, schedule: Q04DX003 (ip), vehicle: saline with Tween-80

SMILES: O=C1Nc2ncnn2C1=O
- T/C (dose: 100.0 mg/kg/injection, schedule: Q01DX005 (ip), vehicle: Klucel (hydroxypropylcellulose) (HPC)): 98 % of control
- T/C [1]: 101 % of control
- T/C [2]: 93 % of control
- T/C (dose: 200.0 mg/kg/injection, schedule: Q01DX005 (ip), vehicle: Klucel (hydroxypropylcellulose) (HPC)): 98 % of control
- T/C [3]: 93 % of control
- T/C [4]: 96 % of control
- T/C (dose: 400.0 mg/kg/injection, schedule: Q01DX005 (ip), vehicle: Klucel (hydroxypropylcellulose) (HPC)): 98 % of control
- T/C [5]: 101 % of control
- T/C [6]: 104 % of control

SMILES: Clc1nc2ccccc2s1.Clc1nc2ccccc2s1.Clc1nc2ccccc2s1.Clc1nc2ccccc2s1.[Cl][Rh][Cl]
- T/C (dose: 3.13 mg/kg/injection, schedule: Q04DX003 (ip), vehicle: distilled water + Tween-80): 94 % of control
- T/C (dose: 6.25 mg/kg/injection, schedule: Q04DX003 (ip), vehicle: distilled water + Tween-80): 96 % of control
- T/C (dose: 12.5 mg/kg/injection, schedule: Q04DX003 (ip), vehicle: distilled water + Tween-80): 96 % of control
- T/C (dose: 25.0 mg/kg/injection, schedule: Q04DX003 (ip), vehicle: distilled water + Tween-80): 102 % of control
- T/C (dose: 50.0 mg/kg/injection, schedule: Q04DX003 (ip), vehicle: distilled water + Tween-80): 103 % of control
- T/C (dose: 100.0 mg/kg/injection, schedule: Q04DX003 (ip), vehicle: distilled water + Tween-80): 102 % of control
- T/C (dose: 200.0 mg/kg/injection, schedule: Q04DX003 (ip), vehicle: distilled water + Tween-80): 103 % of control

SMILES: CCCCCCCCCC[As](=O)(O)CCCCCCCCCC
- T/C [7]: 107 % of control
- T/C [8]: 103 % of control
- T/C [9]: 103 % of control
- T/C [10]: 115 % of control

SMILES: CCCCC(CC)CC1CCCCC1O (configuration not stated)
- T/C [1]: 95 % of control
- T/C [11]: 97 % of control
- T/C [3]: 93 % of control
- T/C [12]: 96 % of control
- T/C [13]: 96 % of control

SMILES: CC(O)CN(CCN(CC(C)O)CC(C)O)CCN(CC(C)O)CC(C)O.O=S(=O)([O-])[O-].[Cu+2] (configuration not stated)
- T/C (dose: 5.0 mg/kg/injection, schedule: Q01DX001 (ip), vehicle: saline): 102 % of control
- T/C (dose: 10.0 mg/kg/injection, schedule: Q01DX001 (ip), vehicle: saline): 91 % of control

SMILES: CN(N=O)C(=O)NCCCCNC(=O)N(C)N=O
- T/C (dose: 6.25 mg/kg/injection, schedule: Q01DX Z (ip), vehicle: carboxymethylcellulose (CMC)): 107 % of control
- T/C (dose: 12.5 mg/kg/injection, schedule: Q01DX Z (ip), vehicle: carboxymethylcellulose (CMC)): 112 % of control
- T/C (dose: 25.0 mg/kg/injection, schedule: Q01DX Z (ip), vehicle: carboxymethylcellulose (CMC)): 111 % of control
- T/C (dose: 50.0 mg/kg/injection, schedule: Q01DX Z (ip), vehicle: carboxymethylcellulose (CMC)): 108 % of control
- T/C (dose: 200.0 mg/kg/injection, schedule: Q01DX Z (ip), vehicle: carboxymethylcellulose (CMC)): 163 % of control

SMILES: Cc1cc(OC(=O)Nc2cc(C(F)(F)F)ccc2Cl)cc(C)c1Cl
- T/C [1]: 91 % of control
- T/C [3]: 104 % of control
- T/C [5]: 93 % of control

SMILES: C=C(CSCC(=O)O)c1ccccc1
- T/C (dose: 100.0 mg/kg/injection, schedule: Q04DX002 (ip), vehicle: saline): 105 % of control
- T/C (dose: 200.0 mg/kg/injection, schedule: Q04DX002 (ip), vehicle: saline): 97 % of control
- T/C (dose: 400.0 mg/kg/injection, schedule: Q04DX002 (ip), vehicle: saline): 97 % of control

SMILES: CC(=O)OCC12CCC(O1)C1C(=O)OC(=O)C12 (configuration not stated)
- T/C [1]: 91 % of control
- T/C [11]: 97 % of control
- T/C [3]: 88 % of control
- T/C [12]: 98 % of control
- T/C [5]: 93 % of control
- T/C [13]: 90 % of control

SMILES: COc1cc(Br)c(CC(=O)O)cc1OC
- T/C (dose: 100.0 mg/kg/injection, schedule: Q04DX003 (ip), vehicle: acetone): 96 % of control
- T/C (dose: 200.0 mg/kg/injection, schedule: Q04DX003 (ip), vehicle: acetone): 95 % of control
- T/C (dose: 400.0 mg/kg/injection, schedule: Q04DX003 (ip), vehicle: acetone): 93 % of control

SMILES: COc1cc(C=Nc2ccccc2)cc(OC)c1OC
- T/C [11]: 104 % of control
- T/C [12]: 102 % of control
- T/C [13]: 95 % of control

SMILES: CC[N+]12CC=C(CO)C1C(O)CC2 (configuration not stated)
- T/C (dose: 50.0 mg/kg/injection, schedule: Q01DX009 (ip), vehicle: Klucel (hydroxypropylcellulose) (HPC)): 100 % of control
- T/C [1]: 95 % of control
- T/C [3]: 95 % of control

SMILES: N=C1SCc2c1sc1ccccc21
- T/C [11]: 117 % of control
- T/C [12]: 104 % of control
- T/C [13]: 103 % of control

SMILES: CC(=O)OC1CC(OC2C(O)CC(OC3C(O)CC(OC4CCC5(C)C(CCC6C5CC(O)C5(C)C(C7=CC(=O)OC7)CCC65O)C4)OC3C)OC2C)OC(C)C1O (configuration not stated) (tested in a mixture with another compound)
- T/C (dose: 100.0 mg/kg/injection, schedule: Q01DX001 (sc), vehicle: steriod suspending solution): 97 % of control
- T/C (dose: 200.0 mg/kg/injection, schedule: Q01DX001 (sc), vehicle: steriod suspending solution): 101 % of control

SMILES: CC(C)(C)C1=NN=C(C(C)(C)C)CS(=O)C1
- T/C [2]: 90 % of control
- T/C [4]: 97 % of control
- T/C [6]: 101 % of control

SMILES: Nc1cc(S(=O)O)c2cccnc2c1O
- T/C (dose: 75.0 mg/kg/injection, schedule: Q01DX009 (ip), vehicle: Klucel (hydroxypropylcellulose) (HPC)): 88 % of control
- T/C [11]: 97 % of control
- T/C (dose: 150.0 mg/kg/injection, schedule: Q01DX009 (ip), vehicle: Klucel (hydroxypropylcellulose) (HPC)): 108 % of control
- T/C [12]: 95 % of control
- T/C (dose: 300.0 mg/kg/injection, schedule: Q01DX009 (ip), vehicle: Klucel (hydroxypropylcellulose) (HPC)): 93 % of control

SMILES: O=C1OC(c2ccccc2)=N/C1=C\c1ccc([N+](=O)[O-])cc1
- T/C [2]: 92 % of control
- T/C [4]: 89 % of control
- T/C [6]: 86 % of control

SMILES: OCCN(CCO)c1cc(O)cc(O)c1
- T/C [14]: 98 % of control
- T/C [15]: 98 % of control
- T/C (dose: 200.0 mg/kg/injection, schedule: Q01DX009 (ip), vehicle: saline with Tween-80): 96 % of control
- T/C (dose: 200.0 mg/kg/injection, schedule: Q04DX003 (ip), vehicle: saline with Tween-80): 91 % of control
- T/C (dose: 400.0 mg/kg/injection, schedule: Q01DX009 (ip), vehicle: saline with Tween-80): 96 % of control
- T/C (dose: 400.0 mg/kg/injection, schedule: Q04DX003 (ip), vehicle: saline with Tween-80): 102 % of control

SMILES: Cc1ncc(C(N)=O)c2c1OC(C)(C)OC2
- T/C [7]: 100 % of control
- T/C [8]: 97 % of control
- T/C [9]: 94 % of control
- T/C [10]: 88 % of control

SMILES: CC(C)(C)CC(C)(C)c1ccc(Oc2ccc([N+](=O)[O-])cc2S(=O)(=O)O)cc1
- T/C [15]: 97 % of control

SMILES: CC(C)(O)OC1COC(C2CS2)C1O (configuration not stated)
- T/C [2]: 94 % of control
- T/C [4]: 98 % of control
- T/C [6]: 102 % of control

SMILES: C=C(C)COP(=O)(OCC(=C)C)OCC(=C)C
- T/C [1]: 97 % of control
- T/C [11]: 97 % of control
- T/C [3]: 100 % of control
- T/C [12]: 100 % of control
- T/C [5]: 103 % of control
- T/C [13]: 92 % of control

SMILES: CCOC(=S)SCCC(=O)O
- T/C [14]: 95 % of control

SMILES: C[N+]1=C(/C=C/c2ccc(O)c3ncccc23)C(C)(C)c2ccccc21
- T/C (dose: 7.5 mg/kg/injection, schedule: Q01DX009 (ip), vehicle: saline): 93 % of control
- T/C (dose: 12.5 mg/kg/injection, schedule: Q01DX001 (ip), vehicle: saline): 106 % of control
- T/C (dose: 15.0 mg/kg/injection, schedule: Q01DX009 (ip), vehicle: saline): 109 % of control
- T/C (dose: 25.0 mg/kg/injection, schedule: Q01DX001 (ip), vehicle: saline): 101 % of control
- T/C (dose: 30.0 mg/kg/injection, schedule: Q01DX009 (ip), vehicle: saline): 104 % of control
- T/C [7]: 113 % of control
- T/C (dose: 60.0 mg/kg/injection, schedule: Q01DX009 (ip), vehicle: saline): 101 % of control
- T/C [8]: 92 % of control and 117 % of control
- T/C [9]: 112 % of control

SMILES: C=C1C(=O)O[C@H]2C[C@@]3(C)[C@H](O)CCC(=C)[C@@H]3[C@@H](OC(C)=O)[C@H]12
- T/C (dose: 25.0 mg/kg/injection, schedule: Q04DX002 (ip), vehicle: saline with Tween-80): 86 % of control
- T/C (dose: 50.0 mg/kg/injection, schedule: Q04DX002 (ip), vehicle: saline with Tween-80): 93 % of control
- T/C (dose: 100.0 mg/kg/injection, schedule: Q04DX002 (ip), vehicle: saline with Tween-80): 108 % of control and 90 % of control
